Data from ChEMBL document CHEMBL3885881, “DrugMatrix”.

How the values were obtained:
Rattus norvegicus [1] = species on record: Rattus norvegicus; experiment: DrugMatrix - Regimen: Daily Repeat; assay type: toxicity, organism-based, Sprague-Dawley; set-up: regimen Daily Repeat, gender Male, age 6-8 weeks; conditions: in vivo, po, 75 mg/kg, route oral GAVAGE, dose level High, vehicle .5 % CMC
Rattus norvegicus [2] = species on record: Rattus norvegicus; assay type: toxicity, organism-based, Sprague-Dawley; conditions: in vivo, po, 75 mg/kg, 24 h, route oral GAVAGE, dose level High, time 1 day, vehicle .5 % CMC
Description: DrugMatrix - Regimen: Single

[3] = […], tissue Plasma, time 14 day

COc1ccc(C2CNC(=O)C2)cc1OC1CCCC1 (centres undefined) [ROLIPRAM]
URIC ACID (Rattus norvegicus [1]; 120 h, tissue Plasma, time 5 day): 1.3 mg/dL | ABSOLUTE BASOPHIL (Rattus norvegicus [1]; […], tissue Blood, time 14 day): 0 CELLS/uL | ABSOLUTE EOSINOPHIL (Rattus norvegicus [1]; […], tissue Blood, time 14 day): 252.2 CELLS/uL | ABSOLUTE LYMPHOCYTE (Rattus norvegicus [1]; […], tissue Blood, time 14 day): 9667.6 CELLS/uL | ABSOLUTE MONOCYTE (Rattus norvegicus [1]; […], tissue Blood, time 14 day): 605.6 CELLS/uL | ABSOLUTE SEGMENTED NEUTROPHIL (Rattus norvegicus [1]; […], tissue Blood, time 14 day): 4994.6 CELLS/uL | BASOPHIL (Rattus norvegicus [1]; […], tissue Blood, time 14 day): 0% | EOSINOPHIL (Rattus norvegicus [1]; […], tissue Blood, time 14 day): 1.6% | ERYTHROCYTE COUNT (Rattus norvegicus [1]; […], tissue Blood, time 14 day): 6.09 x10E6/uL | HEMATOCRIT (Rattus norvegicus [1]; […], tissue Blood, time 14 day): 35.84% | HEMOGLOBIN (Rattus norvegicus [1]; […], tissue Blood, time 14 day): 13.22 G/DL | LEUKOCYTE COUNT (Rattus norvegicus [1]; […], tissue Blood, time 14 day): 15.52 x10E3/uL | LYMPHOCYTE (Rattus norvegicus [1]; […], tissue Blood, time 14 day): 69.8% | MEAN CORPUSCULAR HEMOGLOBIN (Rattus norvegicus [1]; […], tissue Blood, time 14 day): 21.78 pg | MEAN CORPUSCULAR HEMOGLOBIN CONCENTRATION (Rattus norvegicus [1]; […], tissue Blood, time 14 day): 36.88 G/DL | MEAN CORPUSCULAR VOLUME (Rattus norvegicus [1]; […], tissue Blood, time 14 day): 59 fL | MONOCYTE (Rattus norvegicus [1]; […], tissue Blood, time 14 day): 3.4% | NEUTROPHIL (Rattus norvegicus [1]; […], tissue Blood, time 14 day): 25.2% | NUCLEATED RED BLOOD CELLS (Rattus norvegicus [1]; […], tissue Blood, time 14 day): 0 /100WBC | PLATELET COUNT (Rattus norvegicus [1]; […], tissue Blood, time 14 day): 1123.6 x10E3/uL | ALANINE AMINOTRANSFERASE (Rattus norvegicus [1]; [3]): 56 u/L | ALBUMIN (Rattus norvegicus [1]; [3]): 3.84 G/DL | ALKALINE PHOSPHATASE (Rattus norvegicus [1]; [3]): 286.6 u/L | ASPARTATE AMINOTRANSFERASE (Rattus norvegicus [1]; [3]): 76.6 u/L | BLOOD UREA NITROGEN (Rattus norvegicus [1]; [3]): 15.4 mg/dL | CARBON DIOXIDE (Rattus norvegicus [1]; [3]): 31.8 mmol/L | CHLORIDE (Rattus norvegicus [1]; [3]): 104 MEQ/L | CHOLESTEROL (Rattus norvegicus [1]; [3]): 55.8 mg/dL | CREATININE (Rattus norvegicus [1]; [3]): 0.19 mg/dL | GLUCOSE (Rattus norvegicus [1]; [3]): 131.8 mg/dL | LACTATE DEHYDROGENASE (Rattus norvegicus [1]; [3]): 80.4 u/L | LIPASE (Rattus norvegicus [1]; [3]): 9 u/L | PHOSPHORUS (Rattus norvegicus [1]; [3]): 9.08 mg/dL | POTASSIUM (Rattus norvegicus [1]; [3]): 5.55 MEQ/L | SODIUM (Rattus norvegicus [1]; [3]): 149.03 MEQ/L | TOTAL BILIRUBIN (Rattus norvegicus [1]; [3]): 0.16 mg/dL | TOTAL PROTEIN (Rattus norvegicus [1]; [3]): 5.98 G/DL | URIC ACID (Rattus norvegicus [1]; [3]): 0.64 mg/dL | ABSOLUTE EOSINOPHIL (Rattus norvegicus [2]; tissue Blood): 109.33 CELLS/uL | ABSOLUTE LYMPHOCYTE (Rattus norvegicus [2]; tissue Blood): 7018.33 CELLS/uL | ABSOLUTE MONOCYTE (Rattus norvegicus [2]; tissue Blood): 257 CELLS/uL | ABSOLUTE SEGMENTED NEUTROPHIL (Rattus norvegicus [2]; tissue Blood): 1082 CELLS/uL | BASOPHIL (Rattus norvegicus [2]; tissue Blood): 0% | EOSINOPHIL (Rattus norvegicus [2]; tissue Blood): 1.33% | ERYTHROCYTE COUNT (Rattus norvegicus [2]; tissue Blood): 5.95 x10E6/uL | HEMATOCRIT (Rattus norvegicus [2]; tissue Blood): 37% | HEMOGLOBIN (Rattus norvegicus [2]; tissue Blood): 13.5 G/DL | LEUKOCYTE COUNT (Rattus norvegicus [2]; tissue Blood): 8.47 x10E3/uL | LYMPHOCYTE (Rattus norvegicus [2]; tissue Blood): 83.33% | MEAN CORPUSCULAR HEMOGLOBIN (Rattus norvegicus [2]; tissue Blood): 22.7 pg | MEAN CORPUSCULAR HEMOGLOBIN CONCENTRATION (Rattus norvegicus [2]; tissue Blood): 36.47 G/DL | MEAN CORPUSCULAR VOLUME (Rattus norvegicus [2]; tissue Blood): 62.17 fL | MONOCYTE (Rattus norvegicus [2]; tissue Blood): 3% | NEUTROPHIL (Rattus norvegicus [2]; tissue Blood): 12.33% | NUCLEATED RED BLOOD CELLS (Rattus norvegicus [2]; tissue Blood): 0 /100WBC | PLATELET COUNT (Rattus norvegicus [2]; tissue Blood): 1249.33 x10E3/uL | ALANINE AMINOTRANSFERASE (Rattus norvegicus [2]; tissue Plasma): 29 u/L | ALBUMIN (Rattus norvegicus [2]; tissue Plasma): 4.47 G/DL | ALKALINE PHOSPHATASE (Rattus norvegicus [2]; tissue Plasma): 403.67 u/L | ASPARTATE AMINOTRANSFERASE (Rattus norvegicus [2]; tissue Plasma): 74.67 u/L | BLOOD UREA NITROGEN (Rattus norvegicus [2]; tissue Plasma): 13.33 mg/dL | CARBON DIOXIDE (Rattus norvegicus [2]; tissue Plasma): 34.67 mmol/L | CHLORIDE (Rattus norvegicus [2]; tissue Plasma): 103 MEQ/L | CHOLESTEROL (Rattus norvegicus [2]; tissue Plasma): 69.67 mg/dL | CREATININE (Rattus norvegicus [2]; tissue Plasma): 0.18 mg/dL | GLUCOSE (Rattus norvegicus [2]; tissue Plasma): 144.33 mg/dL | LACTATE DEHYDROGENASE (Rattus norvegicus [2]; tissue Plasma): 95.67 u/L | LIPASE (Rattus norvegicus [2]; tissue Plasma): 8.67 u/L | PHOSPHORUS (Rattus norvegicus [2]; tissue Plasma): 11.1 mg/dL | POTASSIUM (Rattus norvegicus [2]; tissue Plasma): 5.46 MEQ/L | SODIUM (Rattus norvegicus [2]; tissue Plasma): 151.33 MEQ/L | TOTAL BILIRUBIN (Rattus norvegicus [2]; tissue Plasma): 0.1 mg/dL | TOTAL PROTEIN (Rattus norvegicus [2]; tissue Plasma): 6.4 G/DL | URIC ACID (Rattus norvegicus [2]; tissue Plasma): 1.17 mg/dL
